Patent publication US20050054559A1, “Compounds for sustained release of orally delivered drugs” (priority 2000, published 2005)

Assays:
LBAT [1] = molecular target: T1, LBAT (Homo sapiens, UniProt Q14973); assay: Inhibition of radiolabeled taurocholate uptake in LBAT-transfected CHO cells; format: cell-based; details: radiolabeled competition assay in transporter-expressing CHO cells
T1 construct: expressed in transfected cells; host or cells: CHO cells
Method: (§1) CHO cells transfected with either the IBAT or LBAT transporter were seeded into 96-well microtiter plates at 100,000 cells/well in 100 μL DMEM containing 10% serum, glutamine and Penstrep. After overnight incubation the media was removed and test compound (25 μL) added at 2× the final desired concentration. Tritiated taurocholate (50,000 CPM/well) was diluted with cold substrate to a final concentration of 5 μM and 25 μL/well of this mixture was added to the plate. After incubating for 1 h at room temperature the solution was removed and the plate washed 4× with PBS at 4° C. 200 μL/well of scintillant is added and the plate then read in a Wallac microbeta counter. The inhibition data is processed by standard methods to calculate an inhibition constant Ki for the test compound.

IBAT [2] = molecular target: T2, IBAT (Homo sapiens, UniProt Q12908); assay: Electrogenic transport in Xenopus oocytes expressing IBAT; format: cell-based
T2 sequence (Q12908 whole entry): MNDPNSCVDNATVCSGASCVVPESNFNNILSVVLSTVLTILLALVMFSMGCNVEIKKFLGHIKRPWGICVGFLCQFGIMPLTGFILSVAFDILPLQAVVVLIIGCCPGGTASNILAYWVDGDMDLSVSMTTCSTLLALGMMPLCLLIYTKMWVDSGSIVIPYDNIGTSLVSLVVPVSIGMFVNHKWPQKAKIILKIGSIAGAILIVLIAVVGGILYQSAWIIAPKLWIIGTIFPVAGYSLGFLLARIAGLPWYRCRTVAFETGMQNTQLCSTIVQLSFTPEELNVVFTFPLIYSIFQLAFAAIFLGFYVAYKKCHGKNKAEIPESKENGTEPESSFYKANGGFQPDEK
Description: (§2) RNA preparation: Human IBAT and LBAT Transporter cDNAs were subcloned into a modified pGEM plasmid that contains 5′ and 3′ untranslated sequences from the Xenopus β-actin gene. These sequences increase RNA stability and protein expression. Plasmid cDNA was linearized and used as template for in vitro transcription (Epicentre Technologies transcription kit, 4:1 methylated:non-methylated GTP).
(§3) Xenopus oocyte isolation. Xenopus laevis frogs were anesthetized by immersion in Tricaine ([…] in deionized water) for 15 min. Oocytes were removed and digested in frog ringer solution (90 mM NaCl, 2 mM KCl, 1 mM MgCl2, 10 mM NaHEPES, pH 7.45, no CaCl2) with 1 mg/mL collagenase (Worthington Type 3) for 80-100 min with shaking. The oocytes were washed 6 times, and the buffer changed to frog ringer solution containing CaCl2 (1.8 mM). Remaining follicle cells were removed if necessary. Cells were incubated at 16° C., and each oocyte injected with […] RNA in […] solution.
(§4) Electrophysiology measurements. Transport currents were measured 2-14 days after injection, using a standard two-electrode electrophysiology set-up (Geneclamp 500 amplifier, Digidata 1320/PCLAMP software and ADInstruments hardware and software were used for signal acquisition). Electrodes ([…]) were microfabricated using a Sutter Instrument puller and filled with 3M KCl. The bath was directly grounded (transporter currents were less than 0.3 μA). Bath flow was controlled by an automated perfusion system (ALA Scientific Instruments, solenoid valves).
For transporter pharmacology, oocytes were clamped at −60 to −90 mV, and continuous current measurements acquired using PowerLab Software and an ADInstruments digitizer. Current signals were lowpass filtered at 20 Hz and acquired at 4-8 Hz. All bath and drug-containing solutions were frog ringers solution containing CaCl2. Drugs were applied for 10-30 seconds until the induced current reached a new steady-state level, followed by a control solution until baseline currents returned to levels that preceded drug application. The difference current (baseline subtracted from peak current during drug application) reflected the net movement of charge resulting from electrogenic transport and was directly proportional to tranport rate. Recordings were made from a single oocyte for up to 60 min, enabling 30-40 separate compounds to be tested per oocyte. […]. Using this normalization procedure Vmax (i.e. maximal induced current) for different compounds tested on different oocytes could be compared.

LBAT [3] = molecular target: T3, LBAT (Homo sapiens, UniProt Q14973); assay: Electrogenic transport in Xenopus oocytes expressing LBAT; format: cell-based
T3 sequence (Q14973 1-349): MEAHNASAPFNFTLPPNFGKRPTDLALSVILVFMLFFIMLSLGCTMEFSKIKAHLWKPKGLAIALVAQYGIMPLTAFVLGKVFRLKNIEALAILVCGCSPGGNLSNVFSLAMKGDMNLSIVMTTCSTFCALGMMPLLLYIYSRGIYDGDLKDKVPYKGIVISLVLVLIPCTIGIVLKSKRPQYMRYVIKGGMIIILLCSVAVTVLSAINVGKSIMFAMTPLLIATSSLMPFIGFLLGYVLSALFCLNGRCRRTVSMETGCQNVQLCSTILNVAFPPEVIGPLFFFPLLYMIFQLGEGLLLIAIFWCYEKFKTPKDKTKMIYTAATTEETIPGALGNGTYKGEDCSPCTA
Description: as §2, §3
as §4, with “The bath was directly grounded (transporter currents were less than 0.3 μA). Bath flow was controlled by an automated perfusion system (ALA Scientific Instruments, solenoid valves).” left out

LBAT [4] = molecular target: T1, LBAT; assay: In vitro uptake by CHO cells transfected with LBAT, evaluated by LC-MS/MS; format: cell-based; details: 0.06 to 1000 μM, 10 min
Method: (§5) Active transport of (4) by the bile acid transport system was evaluated in vitro by incubation of (4) or glycocholate (control substrate) with untransfected CHO K1 cells or CHO cells transfected with either IBAT or LBAT. Cells (10^5 cells/mL) were incubated in 96 well plates with varying concentrations (0.06 to 1000 μM) of (4) or glycocholate for 10 min. Cells were then washed with Hank's Balanced Salt Solution (HBSS) and lysed and extracted by addition of 100 μL of water followed by sonication. Concentrations of (4) or glycocholate in cell extracts were determined by direct injection onto an API 2000 LC/MS/MS equipped with an Agilent 1100 binary pump and autosampler. Separation was achieved using a Keystone BDS Hypersil 2×50 mm column heated to 45° C. during the analysis. The mobile phases were: 0.1% formic acid in water (A) and 0.1% formic acid in acetonitrile (B). The gradient condition was: 5% B for 1 min, increasing to 90% B in 0.2 min, maintained for 2.8 min and returning to 5% B for 2 min. A TurboIonSpray source was used on the API 2000. The analysis was performed in the positive ion mode and MRM transitions of 466/412 and 562/154 were used in the analysis of glycocholate and (4), respectively. Ten microliters of the cell extracts were injected. Peaks were integrated using Analyst quantitation software. […]

Cholylglycine Hydrolase = Cholylglycine Hydrolase (Clostridium perfringens, UniProt P54965); details: compared with plasma, liver or intestine
Chain of Cholylglycine Hydrolase (P54965 whole entry, looked up): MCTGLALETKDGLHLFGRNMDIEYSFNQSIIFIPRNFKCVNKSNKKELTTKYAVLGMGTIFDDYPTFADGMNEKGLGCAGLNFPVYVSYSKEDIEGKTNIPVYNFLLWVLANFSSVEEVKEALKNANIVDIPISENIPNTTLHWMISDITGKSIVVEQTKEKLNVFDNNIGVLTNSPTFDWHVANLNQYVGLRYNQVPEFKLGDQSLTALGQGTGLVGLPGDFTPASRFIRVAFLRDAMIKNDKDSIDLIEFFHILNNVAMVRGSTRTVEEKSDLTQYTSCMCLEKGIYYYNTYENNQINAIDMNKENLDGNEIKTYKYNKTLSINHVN

IBAT [5] = molecular target: T2, IBAT; assay: Inhibition of radiolabeled taurocholate uptake in IBAT-transfected CHO cells; format: cell-based; design: expressed in transfected cells; host or cells: CHO cells; details: radiolabeled competition assay in transporter-expressing CHO cells
Method: as §1

IBAT [6] = molecular target: T2, IBAT; assay: In vitro uptake by CHO cells transfected with IBAT, evaluated by LC-MS/MS; format: cell-based; design: expressed in transfected cells; host or cells: CHO cells; details: 0.06 to 1000 μM, 10 min
Method: as §5

Structure (SMILES): CC(CCC(=O)NCC1(CC(=O)O)CCCCC1)C1CCC2C3C(O)CC4CC(O)CCC4(C)C3CC(O)C12C (stereo not drawn) [Compound (4)]
- IC50 (LBAT [1]): 8 µM
- EC50 (IBAT [2]): 70 µM
- % Max. (GDC) (IBAT [2]; relative to glycodeoxycholate): 67%
- EC50 (LBAT [3]): 19 µM
- % Max. (GDC) (LBAT [3]; relative to glycodeoxycholate): 38%
- Active uptake by bile acid transport system (LBAT [4]): Active uptake
- release of gabapentin catalyzed by cholylglycine hydrolase (in words) (Cholylglycine Hydrolase): Substantially faster release
- IC50 (IBAT [5]): 36 µM
- Active uptake by bile acid transport system (IBAT [6]): Active uptake
